Experimental data published in patent US9745328B2, “Flap modulators” (JANSSEN PHARMACEUTICA NV, priority 2013, dated 2017).
Structures can show the parent of a compound that is named as a salt. Where two headings read alike, the source gives them in different places.

Columns and labels:
[1] = system: leukotriene pathway in human whole blood (LTB4); assay: Human whole blood assay (LTB4 levels after calcium ionophore A23187 stimulation); format: cell-based; conditions: Homo sapiens, read-out: Human Whole Blood LTB4 IC50 1:1
Method: The ability of the compounds of the present invention to treat a FLAP-mediated disease and/or disorder, or associated symptoms or complications thereof, was determined using the following procedures. Binding assay data represent the average value obtained from two different assay plates, with samples run in duplicate on each plate. Human whole blood assay data represent a single replicate on an assay plate using whole blood from at least one healthy donor.
An in vitro cellular assay was performed using human whole blood collected in heparin-containing tubes, which was used to test the ability of compounds to modulate the leukotriene pathway in human whole blood. The blood was diluted 1:1 in RPMI medium, pre-incubated for 15 min at 37° Celsius with test compounds at various concentrations, and then stimulated with calcium ionophore, A23187 (7 μg/mL), for 30 min at 37° Celsius. The samples were then centrifuged and plasma was removed. The plasma was diluted in assay buffer and LTB4 levels were measured using a commercial kit (Enzo Life Sciences). The concentration of each compound that was required for half-maximal inhibition (modulation) of recombinant enzyme activity (IC50) was calculated by a 4-parameter equation using the program GraphPad Prism (GraphPad software).

human FLAP = human FLAP (Homo sapiens (Human), UniProt P20292); assay: FLAP binding assay (HTRF format)
Method in brief: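 Reported data take the mean of two different plates carrying duplicate samples and use the HTRF ratio as the measured signal.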

[2] = human whole blood diluted 1:1, A23187 stimulation, Table 6 (additional runs)
[3] = human FLAP wild type, Table 6 (additional runs)
[4] = Table 6 (additional runs), human whole blood diluted 1:1, A23187 stimulation
[5] = Table 6 (additional runs), human FLAP wild type

Chain of human FLAP (P20292 whole entry): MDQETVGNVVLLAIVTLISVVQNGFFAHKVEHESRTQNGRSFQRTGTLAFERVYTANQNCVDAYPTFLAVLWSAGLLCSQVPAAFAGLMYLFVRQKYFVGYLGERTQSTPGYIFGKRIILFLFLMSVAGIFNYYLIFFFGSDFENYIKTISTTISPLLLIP

Row | Compound | IC50 [1, 2] | Ki (human FLAP; [3]) | other results
1 | CC(=O)N1CCC(S(=O)(=O)c2nc(C(F)(F)F)ccc2-c2ccc(-c3cnc(N)cn3)c(F)c2)CC1 [Example 910] | 9.2 nM | 2.9 nM | –
2 | Nc1ncc(-c2ccc(-c3ccc(C(F)(F)F)cc3C(=O)N3CCOCC3)cc2F)cn1 [Example 522, 5-[3-Fluoro-2′-(morpholin-4-ylcarbonyl)-4′-(trifluoromethyl)biphenyl-4-yl]pyrimidin-2-amine] | 264 nM | 286 nM | –
3 | Nc1ncc(-c2ccc(-c3ccc(C(F)(F)F)nc3S(=O)(=O)C3CCOCC3)cc2F)cn1 [Example 907, 5-{2-Fluoro-4-[2-(tetrahydro-2H-pyran-4-ylsulfonyl)-6-(trifluoromethyl)pyridin-3-yl]phenyl}pyrimidin-2-amine] | – | 6 nM | IC50 [1]: 12 nM
4 | CC(C)(C)NS(=O)(=O)c1ccccc1-c1ccc(-c2cnc(N)c(N)n2)c(F)c1 [Example 428, N-tert-Butyl-4′-(5,6-diaminopyrazin-2-yl)-3′-fluorobiphenyl-2-sulfonamide] | 4.4 nM | 4.3 nM | –
5 | Nc1cnc(-c2ccc(-c3ccccc3OC(F)(F)F)cc2F)cn1 [Example 475, 5-[3-Fluoro-2′-(trifluoromethoxy)biphenyl-4-yl]pyrazin-2-amine] | 4180 nM | 89.6 nM | –
6 | CN1CCN(S(=O)(=O)c2ccccc2-c2ccc(-c3cnc(N)cn3)c(F)c2)CC1 [Example 54, 5-{3-Fluoro-2′-[(4-methylpiperazin-1-yl)sulfonyl]biphenyl4-yl}pyrazin-2-amine] | – | – | IC50 [1, 4]: 41.3 nM; Ki (human FLAP; [5]): 24.9 nM
7 | C[C@H](NS(=O)(=O)c1ccccc1-c1cnc(-c2cnc(N)nc2)c(F)c1)C(F)(F)F [Example 877, 2-[6-(2-Aminopyrimidin-5-yl)-5-fluoropyridin-3-yl]-N-[(1S)-2,2,2-trifluoro-1-methylethyl]penzenesulfonamide as the hydrochloride salt] | 10.5 nM | 4.7 nM | –
8 | CCN(CC)S(=O)(=O)c1ccccc1-c1ccc(-c2cnc3[nH]ccc3n2)c(F)c1 [Example 373, N-Diethyl-3′-fluoro-4′-(5H-pyrrolo[2,3-b]pyrazin-2-yl)biphenyl-2-sulfonamide] | – | – | IC50 [1, 4]: 6.6 nM; Ki (human FLAP; [5]): 0.8 nM
9 | Nc1cnc(-c2ccc(-c3ccccc3S(=O)(=O)N[C@H]3c4ccccc4C[C@H]3O)cc2F)cn1 [Example 160, 4′-(5-aminopyrazin-2-yl)-3′-fluoro-N-((1S,2R)-2-hydroxy-2,3-dihydro-1H-inden-1-yl)-[1,1′-biphenyl]-2-sulfonamide] | – | – | IC50 [1, 4]: 5.3 nM; Ki (human FLAP; [5]): 0.4 nM; Ki (human FLAP; human FLAP wild type, a calculated value of 0.000 indicates Ki less than 1 nM): < 1 nM
10 | Nc1ncc(-c2ncc(-c3ccccc3S(=O)(=O)C3CC3)cc2F)cn1 [Example 878, 5-{5-[2-(Cyclopropylsulfonyl)phenyl]-3-fluoropyridin-2-yl}pyrimidin-2-amine] | 320 nM | 276 nM | –
11 | CC(C)c1ccccc1-c1ccc(-c2cnc(N)cn2)c(F)c1 [Example 482, 5-[3-Fluoro-2′-(1-methylethyl)biphenyl-4-yl]pyrazin-2-amine] | 320 nM | 60.9 nM | –
12 | Nc1cnc(-c2ccc(-c3ccccc3S(=O)(=O)C3CCC3)cc2F)cn1 [Example 196, 5-[2′-(Cyclobutylsulfonyl)-3-fluorobiphenyl-4-yl]pyrazin-2-amine] | – | – | IC50 [1, 4]: 96.3 nM; Ki (human FLAP; [5]): 7.8 nM
13 | Nc1cnc(-c2ccc(-c3ccccc3-c3cn[nH]c3)cc2F)cn1 [Example 870, 5-[3-Fluoro-2′-(1H-pyrazol-4-yl)biphenyl-4-yl]pyrazin-2-amine] | 86.7 nM | 14.3 nM | –
14 | Nc1ncc(-c2ccc(-c3cccnc3S(=O)(=O)C3CCOCC3)cc2F)cn1 [Example 831, 5-{2-Fluoro-4-[2-(tetrahydro-2H-pyran-4-ylsulfonyl)pyridin-3-yl]phenyl}pyrimidin-2-amine formic acid salt] | 72.5 nM | 149 nM | –
15 | Nc1cnc(-c2ccc(-c3ccccc3-c3cnc(N4CCNCC4)nc3)cc2F)cn1 [Example 862, 5-[3-Fluoro-2′-(2-piperazin-1-ylpyrimidin-5-yl)biphenyl-4-yl]pyrazin-2-amine] | 121 nM | 122 nM | –
16 | CN1CCN(S(=O)(=O)c2cc(C(F)(F)F)ccc2-c2ccc(-c3cnc(N)cn3)c(F)c2)CC1 [Example 212, 5-{3-Fluoro-2′-[(4-methylpiperazin-1-yl)sulfonyl]-4′-(trifluoromethyl)biphenyl-4-yl}pyrazin-2-amine] | – | – | IC50 [1, 4]: 5.3 nM; Ki (human FLAP; [5]): 0.8 nM
17 | N#CC1CCN(S(=O)(=O)c2ccccc2-c2ccc(-c3cnc(N)cn3)c(F)c2)CC1 [Example 64, 1-{[4′-(5-Aminopyrazin-2-yl)-3′-fluorobiphenyl-2-yl]sulfonyl}piperidine-4-carbonitrile] | – | – | IC50 [1, 4]: 13.1 nM; Ki (human FLAP; [5]): 1.9 nM
18 | COCCn1cc(-c2ccccc2-c2ccc(-c3cnc(N)cn3)c(F)c2)cn1 [Example 869, 5-{3-Fluoro-2′-[1-(2-methoxyethyl)-1H-pyrazol-4-yl]biphenyl-4-yl}pyrazin-2-amine] | 844 nM | 141 nM | –
19 | N#CCn1cc(-c2ccccc2-c2ccc(-c3cnc(N)cn3)c(F)c2)cn1 [Example 871, {4-[4′-(5-Aminopyrazin-2-yl)-3′-fluorobiphenyl-2-yl]-1H-pyrazol-1-yl}acetonitrile] | 371 nM | 25 nM | –
20 | Nc1ccc(-c2ccccc2-c2ccc(-c3cnc(N)cn3)c(F)c2)cn1 [Example 861, 5-[2′-(6-Aminopyridin-3-yl)-3-fluorobiphenyl-4-yl]pyrazin-2-amine] | 44.9 nM | 4 nM | –

Second part, led by results:

Row | IC50 [1, 2] | Ki (human FLAP; [3]) | Compound | other results
21 | 69.5 nM | 34.2 nM | C[C@@H](NS(=O)(=O)c1ccccc1-c1cnc(-c2cnc(N)nc2)c(F)c1)C(F)(F)F [Example 883, 2-[6-(2-Aminopyrimidin-5-yl)-5-fluoropyridin-3yl]-N-[(1R)-2,2,2-trifluoro-1-methylethyl]benzenesulfonamide] | –
22 | 87.3 nM | 77 nM | Nc1cnc(-c2ccc(-c3cccnc3S(=O)(=O)c3cccnc3)cc2F)cn1 [Example 899, 5-{2-Fluoro-4-[2-(pyridin-3-ylsulfonyl)pyridin-3-yl]phenyl}pyrazin-2-amine] | –
23 | 731 nM | 77.4 nM | Nc1cnc(-c2ccc(-c3ccc(C(F)(F)F)cc3N)cc2F)cn1 [Example 892, 5-[2′-Amino-3-fluoro-4′-(trifluoromethyl)biphenyl-4-yl]pyrazin-2-amine] | –
24 | 236 nM | 3.9 nM | Nc1ncc(-c2ccc(-c3ccccc3Oc3ccc(C(=O)O)cc3)cc2F)cn1 [Example 889, 4-{[4′-(2-Aminopyrimidin-5-yl)-3′-fluorobiphenyl-2-yl]oxy}benzoic acid] | –
25 | > 1000 nM | 30.4 nM | Nc1ncc(-c2ccc(-c3ccccc3OCc3ccc(C(=O)O)cc3)cc2F)cn1 [Example 887, 4-({[4′-(2-Aminopyrimidin-5-yl)-3′-fluorobiphenyl-2-yl]oxy}methyl)benzoic acid] | –
26 | 106 nM | 168 nM | C[C@H](O)CNS(=O)(=O)c1ccccc1-c1cnc(-c2cnc(N)nc2)c(F)c1 [Example 879, 2-[6-(2-Aminopyrimidin-5-yl)-5-fluoropyridin-3-yl]-N-[(2S)-2-hydroxypropyl]benzenesulfonamide] | –
27 | 180 nM | 86.7 nM | C[C@@H](CO)NS(=O)(=O)c1ccccc1-c1cnc(-c2cnc(N)nc2)c(F)c1 [Example 880, 2-[6-(2-Aminopyrimidin-5-yl)-5-fluoropyridin-3-yl]-N-[(1S)-2-hydroxy-1-methylethyl]benzenesulfonamide] | –
28 | 11.9 nM | 6.3 nM | Nc1ncc(-c2ccc(-c3ccc(C(F)(F)F)nc3S(=O)(=O)C3CCS(=O)(=O)CC3)cc2F)cn1 [Example 913, 5-(4-{2-[(1,1-Dioxidotetrahydro-2H-thiopyran-4-yl)sulfonyl]-6-(trifluoromethyl)pyridin-3-yl}-2-fluorophenyl)pyrimidin-2-amine] | –
29 | 40.8 nM | 35.1 nM | CN1CCC(S(=O)(=O)c2ncccc2-c2ccc(-c3cnc(N)cn3)c(F)c2)C1 (stereo not shown) [Example 900, 5-(2-Fluoro-4-{2-[(1-methylpyrrolidin-3-yl)sulfonyl]pyridin-3-yl}phenyl)pyrazin-2-amine] | –
30 | 752 nM | 31.5 nM | Nc1cnc(-c2ccc(-c3ccccc3O[C@H]3CC[C@H](N)CC3)cc2F)cn1 [Example 891] | –
31 | 141 nM | 3.8 nM | Nc1cnc(-c2ccc(-c3cccnc3Oc3ccccc3)cc2F)cn1 [Example 894, 5-[2-Fluoro-4-(2-phenoxypyridin-3-yl)phenyl]pyrazin-2-amine] | –
32 | 52.9 nM | 57.9 nM | CC(O)CN1CCC(S(=O)(=O)c2ncccc2-c2ccc(-c3cnc(N)cn3)c(F)c2)CC1 (racemic) [Example 905, 1-[4-({3-[4-(5-Aminopyrazin-2-yl)-3-fluorophenyl]pyridin-2-yl}sulfonyl)piperidin-1-yl]propan-2-ol] | –
33 | 1060 nM | 40.8 nM | Nc1cnc(-c2ccc(-c3ccccc3OC3CCS(=O)(=O)CC3)cc2F)cn1 [Example 885, 5-{2′-[(1,1-Dioxidotetrahydro-2H-thiopyran-4-yl)oxy]-3-fluorobiphenyl-4-yl}pyrazin-2-amine] | –
